How the values were obtained:
MDA-MB-231 = experiment: Chemosensitization, XTT cell proliferation assay; format: cell-based; conditions: Homo sapiens; drug alone on untransfected MDA-MB-231 cells
Description: (§1) This example summarizes part of the in vitro p53-mediated chemosensitization experiments (XTT assays) performed on the cell lines for which transfection with transferrin-coupled or folate-coupled liposomes is described in Example 17. […] The chemosensitization effect is dependent upon the liposome used and the p53 DNA dose. VIN=vinblastine; DXR=doxorubicin; CDDP=cisplatin. Fold Sensitization is calculated from the individual IC50 values. DNA dose=ug of DNA applied per well (approximately 1×10^4 cells/well in a 96-well plate).

U87 = experiment: Chemosensitization, XTT cell proliferation assay; format: cell-based; conditions: Homo sapiens, U-87 MG, drug alone on untransfected U87 cells
Description: as §1
(§2) The ability of the LipF(B)-delivered AS-HER-2 to sensitize MDA-MB-435, JSQ-3, DU145 and U87 (Human glioblastoma) cells to chemotherapeutic agents was evaluated. Sensitivity was determined using the XTT cell proliferation assay. […] Comparison of the cells treated with LipF(B) mediated AS-HER-2, to that of cells treated with a LipF(B) control oligonucleotide (SC) indicated a greater than 30 fold increase in sensitization of 435 cells to taxotere. In contrast, only a 2.5 fold level of sensitization was evident after transfection with AS-HER-2 using the commercial Lipofectin (Life Technologies, Inc.). Treatment of JSQ-3 cells with LipF(E)-AS-HER-2 increased the effect of docetaxel almost 25 fold. […] A two fold increase in sensitization of DU145 cells to docetaxel was seen after treatment with LipF(E)-AS-HER-2.

PANC-1 = experiment: Chemosensitization, XTT cell proliferation assay; format: cell-based; conditions: Homo sapiens, PANC-1, drug alone on untransfected PANC-1 cells
Description: as §1
Here also a greater than 70 fold increase in drug sensitivity was induced by treatment with LipF(B)-AS-RAS.

PANC-1 xenograft tumors = experiment: Systemic LipF-p53 plus chemotherapy, xenograft growth; format: in vivo, athymic nude mice; conditions: single agent only
Source text: Xenograft tumors of pancreatic cancer cell line PANC-1 were induced by the subcutaneous inoculation of greater than 1×10^7 cells onto athymic nude mice. When the tumors reached approximately 500-1000 mm^3, the tumors were excised and minced into small (<1 mm) pieces. These freshly prepared tumor pieces (suspended in PBS) were inoculated subcutaneously (using a 14 g needle) onto the flanks of athymic nude mice. When the tumors reached an average of 100 mm^3 in volume, treatment was begun. The animals received, via intravenous injection, LipF(B)-p53. This liposome complex was administered twice/week to a total of 7 injections. The chemotherapeutic agent gemcitabine was also administered intraperitoneally at a dose of either 60mg/kg or 120mg/kg twice weekly. A total of 13 gemcitabine injections were administered. One group of animals also received twice weekly intratumoral injections of LipF(B)-p53 (a total 6) in addition to the intravenous administration of the LipF(B)-p53 and gemcitabine. […] This was particularly evident in the group that received both i.v. and i.t injections.

JSQ-3 = experiment: Chemosensitization, XTT cell proliferation assay; format: cell-based; conditions: Homo sapiens, drug alone on untransfected JSQ-3 cells
Description: In addition to radiation, chemotherapy is becoming more commonly used in the treatment of SCCHN. As lack of functional wtp53 has been associated with failure to respond to chemotherapy, in this example we examined the effect of ligand-facilitated liposome mediated wtp53 gene therapy on sensitization of SCCHN cell line JSQ-3 to chemotherapeutic agents. 1×10^4 cells were plated/well of a 96-well plate. 24 hours later, the cells were transfected with LipT(A)-p53. Two days after transfection, anti-neoplastic agents were added at increasing concentrations (in triplicate). 4-6 days later the XTT cell proliferation assay was performed and IC50 values, the drug concentration yielding 50% growth inhibition, calculated.
as §1, with “DNA dose=ug of DNA applied per well (approximately 1×10^4 cells/well in a 96-well plate).” left out
The ability of the LipF(B)-delivered AS-HER-2 to sensitize MDA-MB-435, JSQ-3, DU145 and U87 (Human glioblastoma) cells to chemotherapeutic agents was evaluated. Sensitivity was determined using the XTT cell proliferation assay. […]

DU145 = experiment: Chemosensitization, XTT cell proliferation assay; format: cell-based; conditions: Homo sapiens, DU-145, drug alone on untransfected DU145 cells
Description: as §1, §2

[1] = tested on: MDA-MB-435 mammary fat pad xenograft tumors; experiment: Chemosensitization of xenograft tumors in vivo; parameters: species or system athymic nude mice; conditions: AS-HER-2 only or docetaxel only
Description: Mice bearing subcutaneous mammary fat pad MDA-MB-435 tumors of approximately 100 mm^3 were i.v. injected via the tail vein with LipF(C)-p53 every 3-4 days for a total of eight injections. Doxorubicin (Dxr) (10 mg/kg) was injected i.v. weekly for 4 weeks. […] In a second experiment, two separate liposome compositions [LipF(E) and LipF(C)] were employed.
The ability of the LipF(B)-AS-HER-2 to target and sensitize preexisting MDA-MB-435 xenograft tumors to the chemotherapeutic agent docetaxel in vivo was examined by assessing tumor regression as well as tumor growth inhibition. Female athymic (Ncr nu/nu) mice carrying MDA-MB-435 mammary fat pad xenograft tumors of approximately 70 mm^3 were intravenously injected, via the tail vein, with LipF(B)-AS-HER-2 (at approximately 0.6 mM of oligonucleotides) every other day to a total of 11 injections. A total of 11 intravenous doses of docetaxel (approximately 20 mg/kg/dose every other day) were also administered to the animals. […] Therefore, the systemically delivered, targeted liposome delivery of antisense oligonucleotides, in this case AS-HER-2, was clearly able to sensitize these tumors to the chemotherapeutic agent, strongly inhibiting tumor growth almost three weeks after the end of treatment.

DU145 xenograft tumors = experiment: Systemic LipF-p53 plus chemotherapy, xenograft growth; format: in vivo, mice; conditions: complex twice/week, 5 injections, or docetaxel 10 mg/kg, alone
Description: Mice bearing subcutaneous DU145 xenograft tumors of approximately 100 mm^3 were injected, via the tail vein, with a ligand-liposome p53 complex using folate as the targeting ligand (LipF(B)-p53). This liposome complex was administered twice/week (to a total of 5 injections) along with the chemotherapeutic agent docetaxel at a dose of 10 mg/kg.

| Structure (SMILES) | IC50 (MDA-MB-231) | IC50 (PANC-1) | IC50 (DU145) | further results |
| --- | --- | --- | --- | --- |
| COc1cccc2c1C(=O)c1c(O)c3c(c(O)c1C2=O)C[C@@](O)(C(=O)CO)C[C@@H]3O[C@H]1C[C@H](N)[C@H](O)[C@H](C)O1 [DXR, doxorubicin] | 0.27 µM | – | – | – |
| Nc1ccn([C@@H]2O[C@H](CO)[C@@H](O)C2(F)F)c(=O)n1 [Gemzar, gemcitabine] | – | 0.8 µM | – | IC50 (U87): 1.28 µM; Outcome of control groups (single treatments) (PANC-1 xenograft tumors): euthanized due to tumor burden by day 54 |
| CC(=O)O[C@H]1C(=O)[C@@]2(C)[C@H]([C@H](OC(=O)c3ccccc3)[C@]3(O)C[C@H](OC(=O)[C@H](O)[C@@H](NC(=O)c4ccccc4)c4ccccc4)C(C)=C1C3(C)C)[C@]1(OC(C)=O)CO[C@@H]1C[C@@H]2O [Taxol] | 0.052 µM | – | 0.0132 µM | IC50 (JSQ-3): 0.0158 µM |
| CC(=O)O[C@@]12CO[C@@H]1C[C@H](O)[C@@]1(C)C(=O)[C@H](O)C3=C(C)[C@@H](OC(=O)[C@H](O)[C@@H](NC(=O)OC(C)(C)C)c4ccccc4)C[C@@](O)([C@@H](OC(=O)c4ccccc4)[C@H]21)C3(C)C [Taxotere, docetaxel] | – | 0.0115 µM | 0.042 µM | Tumor growth, single treatment [1]: some docetaxel effect; Tumor growth, single treatment (DU145 xenograft tumors): neither the LipF(B)-p53 complex alone, nor docetaxel alone had any substantial effect on tumor growth |
| CC[C@]1(O)C[C@@H]2CN(CCc3c([nH]c4ccccc34)[C@@](C(=O)OC)(c3cc4c(cc3OC)N(C)[C@H]3[C@@](O)(C(=O)OC)[C@H](OC(C)=O)[C@]5(CC)C=CCN6CC[C@]43[C@@H]65)C2)C1 [Vln, vinblastine] | 0.00181 µM | – | – | – |
